Laboratory results: patent publication US20020045638A1, “Method of treating estrogen receptor positive carcinoma” (priority 2000, published 2002)
Where two headings read alike, the source gives them in different places.

System: MCF-7 human breast cancer cells
Assay: Inhibition of growth of MCF-7 breast cancer cells (MTT), with MacSynergy II synergy analysis;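 also: cells treated five or six days with single agents or combinations, growth read by MTT, synergy surface equals observed % inhibition minus Bliss additive prediction, values under 0% signal antagonism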
Conditions: for inhibition at 0.1 µM / inhibition at 0.2 µM / inhibition at 0.4 µM / inhibition at 0.005 µM / inhibition at 0.01 µM / inhibition at 0.05 µM: Homo sapiens, MCF7, read-out: Percent Inhibition, Table E
Protocol: In these test procedures, rapamycin 42-ester with 3-hydroxy-2-(hydroxymethyl)-2-methylpropionic acid was used as a representative rapamycin, and 2-(4-hydroxy-phenyl)-3-methyl-1-[4-(2-piperdin-1-yl-ethoxy)-benzyl-1 H-indol-5-ol, raloxifene, and 4-hydroxytamoxifen were used as representative antiestrogens.
MCF-7 human breast cancer cells were maintained at 37° C. in a humidified atmosphere of 5% CO2 and 95% air in IMEM medium supplemented with 10% fetal bovine serum. […] One day before the experiment, cells were plated in 96-well plates at a cell density of 2,500 cells/well in IMEM medium supplemented with 10% fetal bovine serum. The next day, cells were treated with various concentrations of antiestrogen and rapamycin 42-ester with 3-hydroxy-2-(hydroxymethyl)-2-methylpropionic acid (referred to as CCI-779 in the tables below). Five or six-days later, cell growth was monitored. MTT solution (20 ul) (0.5 mg/ml) was added to each well and cells were incubated for an additional 4 h. The solution was then removed and 150 ul of DMSO added. The intensity of dark blue color corresponding to number of cells was read at 540 nm with an automated plate reader.
Briefly, theoretical additive interactions were calculated from the dose-response curves of each individual drug based on Bliss independence model. The calculated additive surface was then subtracted from the experimental surface to obtain a synergy surface representing % inhibition above the calculated additive value-synergy index. […] Likewise, any peak below the 0% plane is indicative of antagonism.

**Q.** Which inhibition at 0.1 µM (CCI-779 5 nM + CCI-779 100 nM) does the source give for CO[C@H]1C[C@@H]2CC[C@@H](C)[C@@](O)(O2)C(=O)C(=O)N2CCCC[C@H]2C(=O)O[C@H]([C@H](C)C[C@@H]2CC[C@@H](OC(=O)C(C)(CO)CO)[C@H](OC)C2)CC(=O)[C@H](C)/C=C(\C)[C@@H](O)[C@@H](OC)C(=O)[C@H](C)C[C@H](C)/C=C/C=C/C=C/1C [CCI-779, rapamycin 42-ester with 3-hydroxy-2-(hydroxymethyl)-2-methylpropionic acid] here?
**A.** 51%

**Q.** What about the inhibition at 0.2 µM (CCI-779 5 nM + CCI-779 200 nM) of the same compound?
**A.** 58.1%

**Q.** What about the inhibition at 0.4 µM (CCI-779 5 nM + CCI-779 400 nM) of the same compound?
**A.** 64.1%

**Q.** What about the inhibition at 0.005 µM (CCI-779 10 nM + CCI-779 5 nM) of the same compound?
**A.** 18.8%

**Q.** What about the inhibition at 0.01 µM (CCI-779 10 nM + CCI-779 10 nM) of the same compound?
**A.** 23.5%

**Q.** What about the inhibition at 0.05 µM (CCI-779 10 nM + CCI-779 50 nM) of the same compound?
**A.** 51.2%

**Q.** What about the inhibition at 0.1 µM (CCI-779 10 nM + CCI-779 100 nM) of the same compound?
**A.** 54.8%

**Q.** And the inhibition at 0.2 µM (CCI-779 10 nM + CCI-779 200 nM)?
**A.** 62.4%

**Q.** What about the inhibition at 0.4 µM (CCI-779 10 nM + CCI-779 400 nM) of the same compound?
**A.** 65.2%

**Q.** And the inhibition at 0.005 µM (CCI-779 50 nM + CCI-779 5 nM)?
**A.** 48.3%

**Q.** What about the inhibition at 0.01 µM (CCI-779 50 nM + CCI-779 10 nM) of the same compound?
**A.** 46.9%

**Q.** And the inhibition at 0.05 µM (CCI-779 50 nM + CCI-779 50 nM)?
**A.** 50.3%

**Q.** What about the inhibition at 0.1 µM (CCI-779 50 nM + CCI-779 100 nM) of the same compound?
**A.** 54.6%

**Q.** What about the inhibition at 0.2 µM (CCI-779 50 nM + CCI-779 200 nM) of the same compound?
**A.** 57.5%

**Q.** And the inhibition at 0.4 µM (CCI-779 50 nM + CCI-779 400 nM)?
**A.** 60.2%

**Q.** And the inhibition at 0.005 µM (CCI-779 100 nM + CCI-779 5 nM)?
**A.** 54.2%

**Q.** And the inhibition at 0.01 µM (CCI-779 100 nM + CCI-779 10 nM)?
**A.** 52.9%

**Q.** What about the inhibition at 0.05 µM (CCI-779 100 nM + CCI-779 50 nM) of the same compound?
**A.** 51%

**Q.** What about the inhibition at 0.1 µM (CCI-779 100 nM + CCI-779 100 nM) of the same compound?
**A.** 55%

**Q.** What about the inhibition at 0.2 µM (CCI-779 100 nM + CCI-779 200 nM) of the same compound?
**A.** 62.5%

**Q.** And the inhibition at 0.4 µM (CCI-779 100 nM + CCI-779 400 nM)?
**A.** 66.8%

**Q.** What about the inhibition at 0.005 µM (CCI-779 200 nM + CCI-779 5 nM) of the same compound?
**A.** 51.4%

**Q.** And the inhibition at 0.01 µM (CCI-779 200 nM + CCI-779 10 nM)?
**A.** 57.1%

**Q.** And the inhibition at 0.05 µM (CCI-779 200 nM + CCI-779 50 nM)?
**A.** 57.2%

**Q.** What about the inhibition at 0.1 µM (CCI-779 200 nM + CCI-779 100 nM) of the same compound?
**A.** 59%

**Q.** What about the inhibition at 0.2 µM (CCI-779 200 nM + CCI-779 200 nM) of the same compound?
**A.** 65.5%

**Q.** And the inhibition at 0.4 µM (CCI-779 200 nM + CCI-779 400 nM)?
**A.** 66.8%

**Q.** What about the inhibition at 0.005 µM (CCI-779 400 nM + CCI-779 5 nM) of the same compound?
**A.** 61.1%

**Q.** What about the inhibition at 0.01 µM (CCI-779 400 nM + CCI-779 10 nM) of the same compound?
**A.** 61.1%

**Q.** What about the inhibition at 0.05 µM (CCI-779 400 nM + CCI-779 50 nM) of the same compound?
**A.** 60%

**Q.** What about the inhibition at 0.1 µM (CCI-779 400 nM + CCI-779 100 nM) of the same compound?
**A.** 62%

**Q.** And the inhibition at 0.2 µM (CCI-779 400 nM + CCI-779 200 nM)?
**A.** 66.3%

**Q.** And the inhibition at 0.4 µM (CCI-779 400 nM + CCI-779 400 nM)?
**A.** 69.7%

**Q.** What about the “concentrations at which synergy was more pronounced” value (MCF-7, ERA-923 in combination with CCI-779 (Table A)) of the same compound?
**A.** 300 to 400 nM

**Q.** And the “Percent Inhibition” value (Table A, CCI-779 5 nM, ERA-923 0 nM)?
**A.** −13.25%

**Q.** What about the “Percent Inhibition” value (Table A, CCI-779 10 nM, ERA-923 0 nM) of the same compound?
**A.** −1.54%

**Q.** What about the “Percent Inhibition” value (Table A, CCI-779 50 nM, ERA-923 0 nM) of the same compound?
**A.** 26.68%

**Q.** What about the “Percent Inhibition” value (Table A, CCI-779 100 nM, ERA-923 0 nM) of the same compound?
**A.** 37.93%

**Q.** And the “Percent Inhibition” value (Table A, CCI-779 200 nM, ERA-923 0 nM)?
**A.** 34.99%

**Q.** What about the “Percent Inhibition” value (Table A, CCI-779 400 nM, ERA-923 0 nM) of the same compound?
**A.** 39.43%

**Q.** What about the “Percent Inhibition” value (Table E, CCI-779 5 nM + CCI-779 0 nM) of the same compound?
**A.** 0.59%

**Q.** What about the “Percent Inhibition” value (Table E, CCI-779 10 nM + CCI-779 0 nM) of the same compound?
**A.** 4.91%

**Q.** And the “Percent Inhibition” value (Table E, CCI-779 50 nM + CCI-779 0 nM)?
**A.** 36.55%

**Q.** What about the “Percent Inhibition” value (Table E, CCI-779 100 nM + CCI-779 0 nM) of the same compound?
**A.** 42.35%

**Q.** What about the “Percent Inhibition” value (Table E, CCI-779 200 nM + CCI-779 0 nM) of the same compound?
**A.** 45.87%

**Q.** What about the “Percent Inhibition” value (Table E, CCI-779 400 nM + CCI-779 0 nM) of the same compound?
**A.** 55.78%
